This is an account of results in article PMC6496959 (Journal of medicinal chemistry, 2018).

The test system of this assay is A/PR/8/34 (NA-H274Y) (H1N1). The format is cell-based, influenza A virus. As to conditions: read-out: Antiviral activity (EC50).

In the case of `CCOC(=O)C1=C[C@@H](OC(CC)CC)[C@H](NC(C)=O)[C@@H](N)C1` [Oseltamivir, oseltamivir], the EC50 is over 10 µM.
The result for `NC12CC3CC(CC(C3)C1)C2` [Amantadine, amantadine, reference compound] reads over 100 µM.
